In patent US20190345121A1, “PYRENE-BASED COMPOUNDS FOR INTRACELLULAR ORGANELLE IMAGING APPLICATIONS” (priority 2018, published 2019):

Tests used:
[1] = test system: A549 cells; test: Long-term imaging ability; type: cell-based, human
Method: For the long-term imaging ability assessment aspect of the experiment, a Zeiss LSM 710 fluorescence confocal microscope with identical settings were used for photostability comparisons of the probes (561 nm (15 mW) laser line; Laser power percentage 1.0; Digital zoom=1; Pinhole=1A U; Master Gain=500; Digital offset=0). Different imaging plates with A549 cells were incubated for 30 minutes at […] with probes made using solutions of the pyrene-based compounds having a benzothiazolium group of the present invention as well as with probes made from LysoTracker® Red DND-99. Fluorescence confocal microscopy images were obtained at 30-minute intervals (identical fluorescence microscopy settings were used during the experiments). ImageJ (NIH) software was used to analyze the obtained images and average relative fluorescence intensity was plotted as a function of time.
The lack of cellular pH perturbation, in addition to its low toxicity, raised the possibility of using the pyrene-based compounds having a benzothiazolium group of the present invention for long term lysosome imaging. Thus, A549 cells were treated with a pyrene-based compound having a benzothiazolium group of the present invention (500 nM) over a period of 6 hours, which gave stable fluorescent confocal microscopy images as shown in FIG. 4A. […]

[2] = in the presence of DNA in Tris buffer; cited from earlier work
[3] = test system: DNA; test: Fluorescence titration with DNA in PBS buffer; type: binding; conditions: PBS buffer pH=7.4, DNA <25 μg mL^−1
Source text: The pyrene segment of the pyrene-based compounds having a pyridinium group of the present invention is thought to play an important role in the interaction of probes made with the pyrene-based compounds having a pyridinium group of the present invention with DNA, as planar aromatic compounds are usually regarded as DNA intercalators. In order to shed some light on the interaction between probes made from the pyrene-based compounds having a pyridinium group of the present invention and DNA, fluorescence spectra were acquired when DNA was added into probes made from the pyrene-based compounds having a pyridinium group of the present invention in a PBS buffer solution (pH=7.4). […] Therefore, the initial fluorescence quenching was attributed to the interaction between probes made from the pyrene-based compounds having a pyridinium group of the present invention and DNA, possibly involving insertion of dye molecules into DNA groves.

Structure (SMILES)	cell morphology during long-term imaging ([1]; after 1.5 hours)	average fluorescence intensity vs. staining time ([1]; images every 30 minutes)	fluorescence quantum yield ϕfl [2]	fluorescence change on initial addition of DNA [3]
CN(C)CCNC(=O)CCc1ccc2n1[B-](F)(F)[N+]1=C(c3ccc[nH]3)C=CC1=C2 [LysoTracker® Red DND-99]	significant morphological changes and notable cell shrinkage	significant decrease in relative intensity	–	–
CN(C)CCNc1ccc(O)c2c1C(=O)c1c(O)ccc(NCCN(C)C)c1C2=O [DRAQ5]	–	–	about 0.003	partial fluorescence quenching
